# Data as given in patent US12344646B2, “Antibody-TNF α fusion protein and its preparation and applications” (priority 2018, dated 2025).
# Starred links: 1 amine or outer side, 2 acyl side, 3 side chain; linkers in the order of their positions; H or OH if unused. Positions of bridges follow the written chain, without caps; N, C: chain ends. Non-standard residues stand in square brackets, D forms with d. Residues, ends and D or L forms follow the SMILES beside them. Chains are numbered I, II in the order given. Actinocin(9to1) = Cc1c2oc3c(C)ccc(C(=O)[*:1])c3nc-2c(C(=O)[*:2])c(N)c1=O; NMeV = CN[C@H](C(=O)O)C(C)C; Sar = CNCC(=O)O
# Legend:
# [1] = tested on: NCI-N87 cells; experiment: Synergistic apoptosis with chemotherapeutic, NCI-N87; type: cell-based, human; set-up: effect on viability of NCI-N87 cells: dose or concentration left out as unconfirmed
# Source text: FIG. […]
# (§1) In the following, the Her-2 positive tumor cells were all obtained from the Cell Bank of the Chinese Academy of Sciences. […] Cell viability was detected by MTT assay.
# [2] = tested on: SKBR-3 cells; experiment: Synergistic apoptosis with chemotherapeutic, SKBR-3; type: cell-based, human; details: 15 nM actinomycin D alone
# Description: (§2) FIG. 9A: Her-2 positive human tumor cells (NCI-N87, SKBR-3 and SKOV-3) were cultured in the presence of the fusion protein, actinomycin D or both for 1 day; and cell viability was detected using a CCK-8 kit.
# as §1
# [3] = tested on: SKOV-3 cells; experiment: Synergistic apoptosis with chemotherapeutic, SKOV-3; type: cell-based, human; details: 15 nM actinomycin D alone
# Description: as §2, §1
# [4] = tested on: BT-474 cells; experiment: Synergistic apoptosis with chemotherapeutic, BT-474; type: cell-based, human; details: 33 μM or 11 μM doxorubicin alone
# [5] = tested on: Her-2 positive human gastric cancer cells NCI-N87; experiment: Cytotoxicity of Her-2 antibody-TNFα fusion protein on NCI-N87 cells; type: cell-based; details: at concentrations corresponding to the fusion protein below 20 ng/ml
# Description: FIG. 7A: the NCI-N87 cells were incubated with the antibody-TNFα fusion protein at different concentrations for 1 day; and cell survival was detected using a CCK-8 kit.
# The day before experiment, the cells ([…]) in growth medium (150 μl) were added onto a 96-well plate. […] Cell viability was detected using MTT assay and cell viability using CCK-8.
molecule,measurement,setting,value
"Cc1c2oc3c(C)ccc(C(=O)N[C@@H]4C(=O)N[C@H](C(C)C)C(=O)N5CCC[C@H]5C(=O)N(C)CC(=O)N(C)[C@@H](C(C)C)C(=O)O[C@@H]4C)c3nc-2c(C(=O)N[C@@H]2C(=O)N[C@H](C(C)C)C(=O)N3CCC[C@H]3C(=O)N(C)CC(=O)N(C)[C@@H](C(C)C)C(=O)O[C@@H]2C)c(N)c1=O [actinomycin D] (I: T[dV]P[Sar][NMeV] / II: T[dV]P[Sar][NMeV]; ester I:1-I:C, II:1-II:C; linker I:N-II:N via Actinocin(9to1))",apoptosis in NCI-N87 cells,[1]; 15 nM actinomycin D alone,25%
same,apoptosis in SKBR-3 cells,[2],70%
same,impact on survival of SKOV-3 cells,[3],"Neither 100 ng/ml of Trastuzumab-TNFα fusion protein nor 15 nM of actinomycin D, when used alone, had an impact on survival of SKOV-3 cells"
COc1cccc2c1C(=O)c1c(O)c3c(c(O)c1C2=O)C[C@@](O)(C(=O)CO)C[C@@H]3O[C@H]1C[C@H](N)[C@H](O)[C@H](C)O1 [doxorubicin],effect on viability of NCI-N87 cells,[1],little effect on viability
same,effect on viability of BT-474 cells,[4],little effect on viability
TNFα,apoptosis in NCI-N87 cells,[5],induced no or little apoptosis
